SMILES strings stand for the structures.

`CCOC(=O)c1cn(CC)c2cc(-c3ccno3)ccc2c1=O` displayed a melting point of 243 to 245 °C. Turning to `CCOC(=O)c1cc2cccnc2[nH]1`, the melting point is 153 to 156 °C.

For the compound `Cc1cc(-c2cc(CBr)c(=O)n(Cc3ccccc3Cl)n2)ccc1F`, the melting point is 113 to 115 °C. The compound `Oc1ccc2c(c1)CCC(CNCC(O)c1ccc(Cl)cc1)C2` (stereo not drawn) registered a melting point of 150 to 153 °C. The compound `O=C(c1ccc(F)c(F)c1Nc1ccc(I)cc1F)N1CC(O)CO1` (stereo not drawn) came in with a melting point of 122 to 124 °C. `COc1ccc(-c2c(Cl)nc(C)nc2NS(=O)(=O)c2ccc(OC)cc2)cc1`: the melting point was in the range of 152 to 154 °C. As for `Brc1ccc2c(c1)C(c1ccccn1)=NCc1nnc(Br)n1-2`, the figure is 236 to 238 °C; as for `Cc1cccc(C(=O)NC(Nc2c(Nc3cccnc3Cl)c(=O)c2=O)C(C)(C)C)c1` (stereo not drawn), 238 to 239 °C. The compound `COC(=O)C1=C(C)NC(CC(=O)N2CCN(C3Cc4ccccc4C3)CC2)=C(C(=O)OC)C1c1c(Cl)cccc1Cl` (stereo not drawn) had a melting point of 190 to 200 °C. `Cc1cccc(Cl)c1N1CCCN(C2CCC2)C1=S` gave a melting point of 89 to 91 °C. As for `N#Cc1cccc(-n2c(=O)oc3ccc(-c4ccc(F)cc4F)cc3c2=O)c1`, the figure is 209 to 210 °C; as for `CCCn1nnc(NC(=O)C2c3ccccc3Oc3ccccc32)n1`, 208 to 209 °C; as for `O=S(=O)(c1ccccc1)N1CCC(C(O)(c2ccc(F)cc2)c2ccc(F)cc2)CC1`, 142 to 144 °C. As for `CCOC(=O)C1=C(C)NC(C=O)=C(C(=O)OCC)C1c1ccccc1Cl` (stereo not drawn), the figure is 87 to 88 °C; as for `NC(=O)C(O)(C(N)=O)c1ccccc1`, 159 °C; as for `COC(=O)c1ccccc1SC1=C(O)CC(CCc2ccccc2)(c2ccccc2)OC1=O` (stereo not drawn), 91 to 92 °C. As for `COc1ccc2[nH]c(C(C)C)c(/C=C/C(=O)c3ccncc3)c2c1`, the figure is 252 to 253 °C; as for `COc1cc2c(N)nc(N3CCN(c4nc5ccccc5s4)CC3)nc2c(OC)c1OC`, more than 250 °C; as for `CCOc1ncnc2c1sc1nc(N(C)C)c3c(c12)CC(C)(C)CC3`, 220 to 221 °C. For `CCOC(=O)c1cnc2c(cnn2Cc2ccco2)c1OCC`, the melting point lay in the range of 93 to 96 °C. Compound `O=C(C=Cc1cccnc1)NCCCCC1CCN(C(=O)c2ccccc2)CC1` had a melting point of 100 to 102 °C. In turn, `CCN(CC)C(=O)n1cc(F)c(S(=O)(=O)c2c(C)cc(C)cc2C)n1` registered a melting point of 109 to 111 °C. `CCCCc1nn(-c2ccc(C(F)(F)F)cn2)cc1CCC(=O)OCC` displayed a melting point of 63 to 64 °C. As for `CNC(=O)c1cccc(NC(=O)Cc2csc3ccccc23)c1`, the figure is 194 °C; as for `FC(F)(F)Sc1ccc(/C=C/c2nc(COc3ccc(-c4nc(Cn5ccnc5)co4)cc3)co2)cc1`, 144 to 145 °C; as for `CC1COc2c(F)c(F)cc3c2N1C(=O)C3=O` (stereo not drawn), 169 to 171 °C.

On to `Cc1cc(=O)[nH]n(Cc2ccccc2)c1=O`, for which the melting point is more than 200 °C. As for `CC(C)(C)c1cc(CN)nn1-c1ccc(S(C)(=O)=O)cc1`, the figure is 138 to 145 °C; as for `Cc1nnc(-c2ccc3occ(-c4ccc(S(=O)C(C)C)cc4)c3c2)o1` (stereo not drawn), 157 to 158 °C; as for `O=C(Cl)c1ccc(S(=O)(=O)NC(=O)c2ccccc2Cl)cc1`, 198 to 200 °C.

`CC(C)(C)OC(=O)N1CCN(Cc2ccc(NC(=O)Oc3ccccc3)c(C(F)(F)F)c2)CC1` yielded a melting point of 143 to 147 °C. As for `O=C(O)c1cc2c3c(ccc2[nH]1)OC[C@H](CO)O3`, the figure is 216 to 217 °C.

Compound `O=C1C(Cc2ccccc2)C(c2ccccc2)=Nc2ccccc2N1Cc1ccccc1` (stereo not drawn) had a melting point of 173 to 174 °C. As for `CN=C(NCCCc1nc2cc(C3=NNC(=O)CC3C)ccc2[nH]1)NC(=O)c1ccccc1` (stereo not drawn), the figure is 270 °C; as for `O=[N+]([O-])c1cccc(C(O)C(Cl)(Cl)Cl)c1` (stereo not drawn), 91 to 95 °C; as for `O=C1c2ccccc2CCn2c(SC(F)(F)F)ccc21`, 95 to 95.5 °C. As for `CCSc1c(Cl)c(C(=O)O)c(C(O)=NC)c(Cl)c1SCC`, the figure is 154 to 155 °C; as for `CCCS(=O)c1cc(OCCCS(=O)Cc2ccccc2)ccc1C` (stereo not drawn), 92 to 94 °C; as for `Cc1ncccc1C(N)=O`, 160 to 163 °C. As for `CCOC(=O)C=Cc1ccc(F)c([N+](=O)[O-])c1`, the figure is 115 to 117 °C; as for `c1ccc(-c2cc3c(N4CCOCC4)nnc(N4CCOCC4)c3cn2)cc1`, 186 to 188 °C. On to `CNCC(O)C1=CC2(CCCC2)c2ccccc21` (stereo not drawn), for which the melting point fell in the range of 75 to 77 °C. As for `COc1cn(-c2cc3c(cc2F)OC(F)(F)C(F)(F)O3)nc(-c2ccnn2-c2ccccc2)c1=O`, the figure is 192 to 194 °C; as for `CC(=O)NCC1CN=C(c2ccccc2F)c2cc(Cl)ccc2N1C(C)=O` (stereo not drawn), 213 to 215 °C.

`CN(C)C(=NC1CCCCC1)C(N)=S` displayed a melting point of 116 to 120 °C. As for `CN1CCN(S(=O)(=O)c2cc(NC(=O)c3cnn4c(C(F)(F)F)cc(-c5ccc(C(F)(F)F)cc5)nc34)c(Cl)s2)CC1`, the figure is 301 °C; as for `COCCCc1ccc(CNC(=O)[C@@H](COC)NC(C)=O)cc1`, 105 to 107 °C; as for `CC(C)(O)C(=O)c1ccc(OCC(N)=O)cc1`, 139 °C. On to `CCc1c(CCN2CCC(c3nsc4cc(F)ccc34)CC2)sc2c1CCN(C(C)=O)C2`, for which the melting point was 156 to 160 °C.

Regarding `CC(C)(C)c1cc(C(=O)c2nccs2)cc2c1OCC2(C)C`, the melting point was 101 to 103 °C.

The compound `CC(C)Oc1cc(-n2c(=O)[nH]c3c(c2=O)CCC3)c(F)cc1Cl` yielded a melting point of 215 to 217 °C. As for `Clc1ccc(-c2cc(C3CCN(CC4CC4)CC3)n[nH]2)cc1`, the figure is 176 to 178 °C; as for `CC1(C)CC(N(CCO)S(C)(=O)=O)c2cc(OCc3ccccc3)ccc2O1` (stereo not drawn), 78 to 80 °C. As for `CCCCCNC1=CC(=O)c2c(OC)ccc(OC)c2C1=O`, the melting point fell in the range of 102 to 103 °C. As for `COc1ccc2c(c1)C(CC(=O)O)=C(C)C2=Cc1ccc(S(N)(=O)=O)cc1`, the figure is 224 to 225 °C; as for `C=Cc1cnc(Nc2ccc(C#N)cc2)nc1Nc1c(C)cc(C)cc1C`, 237 to 242 °C. Take `Cc1c(C)c2c(c(C)c1N)CC(C)(CN1CCC(CCc3ccccc3)CC1)O2` (stereo not drawn): the melting point was 91 to 92 °C. As for `O=C(CCNC(=O)OCc1ccccc1)NC1OC(C(=O)O)CC1O` (stereo not drawn), the figure is 195 to 198 °C; as for `CC1SC(=NO)C(C)(C)NC1=O` (stereo not drawn), 199 to 202 °C. As for `CC1(C)CCC(O)(CCN2C(=O)CSC2CCCc2ccc(C(=O)O)cc2)CC1` (stereo not drawn), the melting point is 142 to 143 °C. As for `COc1ccc(CCNc2nc3nc(-c4ccco4)nc-3c(N)[nH]2)cc1`, the figure is 220 to 222 °C. As for `O=S(=O)(c1ccccc1)N1CCC(C(Nc2ccc(F)cc2)c2ccc(F)cc2)CC1` (stereo not drawn), the figure is 175 to 176 °C; as for `COC(=O)c1cc(OCCCCCCCCCCCCOc2ccccc2)ccc1O`, 61 to 64 °C.

For orientation: melting point means the temperature of the solid-liquid transition.

These data come from a melting point compilation (Tetko et al.; mined from patent text by program, amines drawn as free bases though some values may be those of a salt).
